{"source": "patent US20060275215A1", "about": "“Novel imaging agents” (priority 2003, published 2006)", "origin": "cited, not measured here", "key": {"caspase-3": {"target": "T1, caspase-3 (Homo sapiens, UniProt P42574)", "T1 sequence (P42574 29-175 limits assumed)": "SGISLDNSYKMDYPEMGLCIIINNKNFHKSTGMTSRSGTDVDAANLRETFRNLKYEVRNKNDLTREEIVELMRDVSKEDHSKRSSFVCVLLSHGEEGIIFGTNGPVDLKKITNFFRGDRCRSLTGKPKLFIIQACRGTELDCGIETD", "T1 sequence (P42574 176-277 limits assumed)": "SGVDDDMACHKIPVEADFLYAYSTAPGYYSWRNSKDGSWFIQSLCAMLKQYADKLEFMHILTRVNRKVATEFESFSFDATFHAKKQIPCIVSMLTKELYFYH"}, "[1]": {"system": "phosphatidylserine (PS) on the outer membrane of apoptotic cells", "conditions": "binding to phosphatidylserine on outer membrane of apoptotic cells; read-out: affinity"}, "[2]": {"conditions": "labelled with the radioisotope 131I"}}, "data": [{"compound": "CCOc1ccc(S(C)(=O)=O)cc1CC(=O)NC(C(=O)NC(CC(=O)O)C(=O)CSCc1c(F)cccc1Cl)C(C)C", "note": "(stereo not drawn) [Compound 6C]", "values": [{"measurement": "IC50 for caspase-3", "setting": "caspase-3", "value": "low nanomolar range"}]}, {"compound": "CCOc1ccc(OCC(=O)O)cc1CC(=O)NC(C(=O)NC(CC(=O)O)C(=O)CSCc1c(F)cccc1Cl)C(C)C", "note": "(stereo not drawn) [6A′]", "values": [{"measurement": "IC50 for caspase-3", "setting": "caspase-3", "value": "low nanomolar range"}]}, {"compound": "CCOc1ccc(OCC(=O)OC)cc1CC(=O)NC(C(=O)NC(CC(=O)O)C(=O)CSCc1c(F)cccc1Cl)C(C)C", "note": "(stereo not drawn) [Compound 6A]", "values": [{"measurement": "IC50 for caspase-3", "setting": "caspase-3", "value": "low nanomolar range"}]}, {"compound": "Annexin-5: endogenous human protein (RMM 36 kDa) which binds to phosphatidylserine", "values": [{"measurement": "Kd", "setting": "[1]", "value": "~1", "unit": "nM"}]}, {"compound": "CCOc1ccc(OCC(=O)OC(C)C)cc1CC(=O)NC(C(=O)NC(CC(=O)O)C(=O)CSCc1c(F)cccc1Cl)C(C)C", "note": "(stereo not drawn) [Compound 6B]", "values": [{"measurement": "IC50 for caspase-3", "setting": "caspase-3", "value": "low nanomolar range"}]}, {"compound": "benzyloxycarbonyl-Val-Ala-DL-Asp(O-methyl)-fluoromethylketone [Z-VAD-fmk]", "values": [{"measurement": "absolute cellular uptake", "setting": "[2]", "value": "low"}]}]}
